Read-outs that look alike come from different tables or passages of the source.
Assays:
[1] = ABTS•+ decolorization assay
In short: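 Compounds (10 mM DMSO stocks, diluted) added to ABTS•+ radical generated by potassium persulfate oxidation of ABTS. Decolorization followed as absorbance at room temperature, with Trolox as standard.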

soybean lipoxygenase = molecular target: T1, soybean lipoxygenase (Glycine max, UniProt P08170); test: biochemical; assay type: biochemical
T1 sequence (P08170 1-839): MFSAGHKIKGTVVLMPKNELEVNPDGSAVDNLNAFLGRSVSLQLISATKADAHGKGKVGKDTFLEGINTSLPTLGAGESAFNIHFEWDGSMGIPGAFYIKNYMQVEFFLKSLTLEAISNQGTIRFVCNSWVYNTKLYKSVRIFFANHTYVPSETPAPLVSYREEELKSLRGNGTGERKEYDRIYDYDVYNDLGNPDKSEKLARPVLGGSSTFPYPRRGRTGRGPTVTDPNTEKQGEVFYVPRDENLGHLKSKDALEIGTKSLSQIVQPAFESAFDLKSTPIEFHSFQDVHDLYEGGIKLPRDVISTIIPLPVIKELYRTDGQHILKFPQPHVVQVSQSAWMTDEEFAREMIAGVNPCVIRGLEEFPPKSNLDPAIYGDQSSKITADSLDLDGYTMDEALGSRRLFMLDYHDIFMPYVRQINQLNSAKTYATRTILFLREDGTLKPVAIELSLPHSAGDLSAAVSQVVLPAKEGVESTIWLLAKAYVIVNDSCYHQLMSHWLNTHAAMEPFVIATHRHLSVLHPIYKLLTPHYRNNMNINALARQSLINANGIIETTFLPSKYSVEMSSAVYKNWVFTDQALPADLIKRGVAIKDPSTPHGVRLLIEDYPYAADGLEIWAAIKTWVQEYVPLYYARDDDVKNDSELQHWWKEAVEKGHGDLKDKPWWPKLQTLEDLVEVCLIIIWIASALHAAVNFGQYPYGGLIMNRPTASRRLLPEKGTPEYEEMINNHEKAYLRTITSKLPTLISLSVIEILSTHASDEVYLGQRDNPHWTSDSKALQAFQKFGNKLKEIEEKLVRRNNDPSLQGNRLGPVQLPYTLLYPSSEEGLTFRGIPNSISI
In short: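 Soybean LOX (enzyme solution 1/9 × 10^−4 w/v in saline) incubated at room temperature with sodium linoleate ([…]) in tris buffer pH 9. Compounds added from DMSO stocks. IC50 derived from several concentrations.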

[2] = Lipophilicity as RM values by RP-TLC; assay type: physicochemical; parameters: key: RM = log[(1/Rf) − 1]; settings: methanol/water 70/30, SD < 10%
In short: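 Reversed-phase TLC on silica gel plates impregnated with 5% (v/v) liquid paraffin, methanol/water 70/30 (v/v) mobile phase, saturated tanks at 24 °C, UV detection. RM = log[(1/Rf) − 1] from five Rf measurements.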

[3] = system: L929 mouse fibroblasts cells; test: Cytotoxicity, propidium iodide fluorescence method; assay type: cell-based; settings: 24-h incubation
In short: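 L929 cells in EMEM with 10% horse serum were allowed to attach for 24 h, then exposed to 1, 10, 20, 50 and 100 μM compound for 24 h at 37 °C. Cells were detached, stained with propidium iodide, and cell death was measured by flow cytometry.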

Row | Compound | ABTS•+ Inhb. % @ 100 μM [1] | % LOX Inhb. @ 100 μM (soybean lipoxygenase; soybean LOX) [%] | IC50 (soybean lipoxygenase; soybean LOX, read-out: LOX IC50) [µM] | RM [2] | IC50 (soybean lipoxygenase) [µM] | 1 μM Average (% pi) ± σ [3] [%] | 10 μM Average (% pi) ± σ [3] [%] | 20 μM Average (% pi) ± σ [3] [%] | 50 μM Average (% pi) ± σ [3] [%] | 100 μM Average (% pi) ± σ [3] [%]
1 | O=C(/C=C/c1cccc2ccccc12)c1ccccc1O [b4, (E)-1-(2-hydroxyphenyl)-3-(naphthalen-1-yl) prop-2-en-1-one] | No | 82 | 65 | −0.03 |  |  |  |  |  | 
2 | O=C(/C=C/C=C/c1ccc([N+](=O)[O-])cc1)c1ccc(OCCCOc2ccc(C(=O)/C=C/C=C/c3ccc([N+](=O)[O-])cc3)cc2)cc1 [c11, (2E,2′E,4E,4′E)-1,1′-((propane-1,3-diylbis(oxy))bis(4,1-phenylene))bis(5-(4-nitrophenyl)penta-2,4-dien-1-one)] | No | 95 |  | −0.88 | 50 | 6.4 ± 0.4 | 19.07 ± 7.23 | 34.63 ± 0.31 | 64.53 ± 3.07 | 64.53 ± 3.07
3 | CC(=O)c1ccc(OCCOc2ccc(C(C)=O)cc2)cc1 [di, 1,1′-((ethane-1,2-diylbis(oxy))bis(4,1-phenylene))diethanone] | No | 12 |  | 0.67 |  | 4.94 ± 1.02 | 9.05 ± 0.58 | 16.78 ± 5.61 | 33.22 ± 9.65 | 33.22 ± 9.65
4 | CC(=O)c1ccc(OCCCCCCCOc2ccc(C(C)=O)cc2)cc1 [dvi, 1,1′-((heptane-1,7-diylbis(oxy))bis-(4,1-phenylene)) diethanone] | No | 17 |  | 0.32 |  | 0.37 ± 0.52 | 1.92 ± 1.02 | 1.79 ± 1.53 | 2.55 ± 0.5 | 2.55 ± 0.5
